Measurements as given in paper PMC6510487 (Chemosensors (Basel, Switzerland), 2018).
Ends that are not written are not given here.

How the values were obtained:
human SIRPalpha [1] = assay: Microscale thermophoresis binding of CD47 mimetic probe to hSIRPalpha; conditions: 150 μM probe, 50 μM human SIRPalpha
human SIRPalpha [2] = assay: Fluorescence response of CD47 mimetic probe upon hSIRPalpha binding; conditions: 150 μM probe, 50 μM human SIRPalpha

binding to hSIRPalpha by MST (human SIRPalpha [1]): could bind to hSIRPalpha | fluorescence enhancement upon target binding to hSIRPalpha (human SIRPalpha [2]): did not exhibit fluorescence enhancement
Sequence: EVTELTREGE [CD47 mimetic probe]
